Reference: patent publication US7122569B2, “Ethylene glycol esters as photoactive agents” (priority 1997, dated 2006)

How the values were obtained:
splenocytes = settings: 3 μg/ml, after an hour of incubation
Experimental: The ability of L1210 cells to accumulate B-EA6 was compared to the ability of splenocytes to do so. B-EA6 at 3 μg/ml was incubated with each cell type and the cell content of B-EA6 was determined by fluorescence in cell lysates.

CD86 (B7-2) = assay: Low-dose PDT, expression of cell surface antigens by peritoneal macrophages: CD86; assay type: cell-based, murine; settings: BPD-MA 2.5 ng/ml, B-EA6 0.5 ng/ml; 690 nm LED 5 J/cm^2, 24 hr later
Experimental: (§1) In an additional assay to determine immunomodulation, murine peritoneal macrophages were isolated, purified and activated by recombinant interferon-γ (100 U/ml). […] Expression levels of MHC I, MHC II, CD54, CD80 and CD86 were determined 24 hr later using FITC conjugated antibodies and a cell sorter. The results are shown in Table 4 for B-EA6 at 0.5 ng/ml in comparison to similar experiments using BPD-MA at 2.5 ng/ml. The results in the table are given as a percent of expression as compared to cells treated with light only. As shown, BPD-MA and B-EA6 were both able to reduce expression of MHC II, but not the remaining surface markers. Thus, although B-EA6 has advantageous pharmacokinetics, it retains the immunomodulatory activity of BPD-MA and other compounds of this group.

L1210 cells [1] = assay: Uptake of photosensitizer by L1210 cells (fluorescence of cell lysates); assay type: cell-based, murine; settings: 3 μg/ml, 10% fetal bovine serum
Experimental: BPD-MA or B-EA6 were incubated at 3 μg/ml in the presence of 10% fetal bovine serum with 10^7/mL of L1210 cells, a murine leukemia cell line. Intracellular content of the photosensitizers was measured by fluorescence of cell lysates at various times. […] The time course of uptake is shown in FIG. 2 as a percentage of cell content at 60 min by which time uptake had reached a maximum in both cases. As shown, B-EA6 is taken up more rapidly and reaches […] of its maximum concentration after only 5 min and reached its maximum uptake within 15 min.

CD54 (ICAM-1) = assay: Low-dose PDT, expression of cell surface antigens by peritoneal macrophages: CD54; assay type: cell-based, murine; settings: BPD-MA 2.5 ng/ml, B-EA6 0.5 ng/ml; 690 nm LED 5 J/cm^2, 24 hr later
Experimental: as §1

[2] = test system: DNFB-induced ear swelling; assay: Contact hypersensitivity (CHS) assay, DNFB ear swelling; assay type: in vivo, Balb/C mice; settings: 1 mg/kg liposomal IV
Experimental: Balb/C mice (5–8 mice per group) were tested using the delayed skin photosensitivity assay also called the contact hypersensitivity (CHS) assay. The mice were painted in the flank with the sensitizing agent dinitrofluorobenzene (DNFB) and 5 days later, one ear is challenged with DNFB, while the other serves as a control. The swelling is an indicator of immune response. […] The swelling in both cases was only approximately 60% of the that shown in mice without treatment.

arterioles and venules = assay: Mouse cremaster muscle model, effect on microvasculature; assay type: in vivo; settings: 2 mg/kg IV, 25 J/cm^2 per 5 min
Experimental: The mouse cremaster muscle model was used. B-EA6 was administered intravenously at 2 mg/kg and starting at 5 and 15 min postinjection, surgically exposed arterioles and venules were irradiated with light at an intensity of 25 J/cm^2 per 5 min beginning at 5 min and 15 min after injection of the B-EA6. The vessels were measured as red blood column diameter as a percentage of controls.

[3] = test system: adjuvant-enhanced arthritis; assay: Arthritis model, adjuvant-enhanced, PDT on days 0, 10, 20; assay type: in vivo, MRL-Ipr mice; settings: 0.5 mg/kg liposomal IV, red light 80 J/cm^2 at 1 hr
Experimental: MRL-Ipr mice spontaneously develop arthritis; this was enhanced by intradermal injection of Freund's Adjuvant. Various numbers of MRL-Ipr mice were treated with PDT on days 0, 10, and 20 after injection of the adjuvant. […] The mice were observed and symptoms scored every 5 days for 30 days. The results are shown in FIG. 6 in comparison to mice similarly treated with BPD-MA and BPD-MB.

CD80 (B7-1) = assay: Low-dose PDT, expression of cell surface antigens by peritoneal macrophages: CD80; assay type: cell-based, murine; settings: BPD-MA 2.5 ng/ml, B-EA6 0.5 ng/ml; 690 nm LED 5 J/cm^2, 24 hr later
Experimental: as §1

MHC Class II = assay: Low-dose PDT, expression of cell surface antigens by peritoneal macrophages: MHC Class II; assay type: cell-based, murine; settings: BPD-MA 2.5 ng/ml, B-EA6 0.5 ng/ml; 690 nm LED 5 J/cm^2, 24 hr later
Experimental: as §1

L1210 cells [4] = assay: Release of photosensitizer from preloaded L1210 cells; assay type: cell-based, murine; settings: preloaded at 3 μg/ml for 1 hr, drug-free medium with 10% fetal bovine serum; compared with BPD-MA
Experimental: The kinetics of release of these drugs from L1210 cells was measured by preloading the cells at 3 μg/ml for 1 hr and then placing the cells in drug-free medium containing 10% fetal bovine serum. Remaining intracellular drug content was measured at various time points by lysing the cells and measuring fluorescence.

[5] = test system: M1 (rhabdomyosarcoma) tumor; assay: Tumor selectivity of PDT in mice bearing subcutaneous M1 tumor; assay type: in vivo, DBA/2 mice; settings: 0.75 mg/kg liposomal IV, 15 min, 50 J/cm^2 690 nm
Experimental: Mice were administered 0.75 mg/kg of B-EA6 in a liposomal formulation intravenously. After 15 min, a 1 cm area which included a 5 mm diameter tumor was exposed to 50 J/cm^2 of 70 mW light of 690 nm wavelength from an argon-pumped dye laser.

[6] = In vivo pharmacokinetics, drug content of tissues by fluorescence in tissue extracts; design: species or system DBA/2 mice; settings: 4 mg/kg intravenous
Experimental: Either BPD-MA or B-EA6 was administered by intravenous injection into DBA/2 mice at a dose of 4 mg/kg using 3 mice per time point. The drug content of plasma, skin, liver and kidney was determined by fluorescence in the tissue extracts.

[7] = test system: M1 rhabdomyosarcoma tumors; assay: PDT bioassay in mouse tumor model, tumor-free on day 7; assay type: in vivo, DBA/2 mice
Experimental: The pharmacokinetics were also determined using an in vivo mouse tumor model. Groups of 10 DBA/2 mice containing M1 rhabdomyosarcoma tumors were injected intravenously with a liposomal formulation of BPD-MA at various dosages of 0.75–1.5 mg/kg. The tumors were irradiated with 690 nm laser light at 50 or 150 J/cm^2 at various times after injection.

MHC Class I = assay: Low-dose PDT, expression of cell surface antigens by peritoneal macrophages: MHC Class I; assay type: cell-based, murine; settings: BPD-MA 2.5 ng/ml, B-EA6 0.5 ng/ml; 690 nm LED 5 J/cm^2, 24 hr later
Experimental: as §1

L1210 cells [8] = assay: LD50 / photocytotoxicity on L1210 cells, 9 J/cm^2 broad spectrum light, MTT assay; assay type: cell-based, murine
Experimental: Either B-EA6 or BPD-MA was incubated for 1 hr with L1210 cells at a range of concentrations and exposed to 9 J/cm^2 broad spectrum light. This determination was made in the absence of serum and in the presence of 10% serum.
The ability of B-EA6 to exert a cytotoxic effect on L1210 cells in vitro was further tested by incubating the cells with B-EA6 at various concentrations for 1 hr in the absence of serum. After excess drug was removed, the cells were exposed to 9 J/cm^2 broad spectrum light (380–750 nm) and cell survival was determined by the MTT assay (Mosmann, T. et al. J Immunol Meth (1983) 65:55–63). The percentage of killed cells was calculated in reference to survival of cells exposed to light only.

## C=Cc1c(C)c2cc3nc(cc4[nH]c(cc5nc(cc1[nH]2)C1(C)C5=CC=C(C(=O)OC)C1C(=O)OC)c(C)c4CCC(=O)OCCO)C(CCC(=O)OCCO)=C3C (centres unmarked) [B-EA6]
splenocytes
  cell content of B-EA6 accumulated: less than 20 ng/10^6 cells
CD86 (B7-2)
  CD86 (B7-2) expression, percent of cells treated with light only: 92.2%
L1210 cells [1]
  time to maximum uptake: ≤ 15 min
L1210 cells [1]; 10^7/mL L1210 cells
  maximum concentration reached (intracellular content): 145.9 ng/10^6 cells
CD54 (ICAM-1)
  CD54 (ICAM-1) expression, percent of cells treated with light only: 106.9%
[2]; 15 J/cm^2 whole body light
  ear swelling relative to mice without treatment: approximately 60%
[2]; ambient light
  ear swelling relative to mice without treatment: approximately 60%
Arterioles and venules; irradiation started after 15 min
  vessel closure: permanent closure
Arterioles and venules; irradiation started at 5 min
  vessel closure: transient vessel closure
[3]
  prevention of arthritis symptoms (incidence of clinical symptoms, bimaleolar ankle width): effective in preventing the sequellae of adjuvant injection
CD80 (B7-1)
  CD80 (B7-1) expression, percent of cells treated with light only: 102.3%
MHC Class II
  MHC Class II expression, percent of cells treated with light only: 71.8%
L1210 cells [4]
  initial release from cells: much more rapid
[5]
  effect of PDT on surrounding normal skin: did not affect the surrounding normal skin
  effect of PDT on tumor: effectively eliminated the tumor
[6]; first 3 hr
  accumulation in skin: does not
[6]; kidney
  T½ (15 min-3 hours) Kidney: 48 min
[6]; liver
  T½ (15 min-3 hours) Liver: 36 min
[6]; muscle
  T½ (15 min-3 hours) Muscle: 666 min
[6]; plasma
  T½ (15 min-3 hours) Plasma: 36 min
[6]; relative to 15 min postinjection
  accumulation in plasma, liver or kidney: neither BPD-MA nor B-EA6 accumulated
[6]; skin
  T½ (15 min-3 hours) Skin: 114 min
[6]; spleen
  T½ (15 min-3 hours) Spleen: 48 min
[7]; 0.75 mg/kg liposomal IV, light 15 min post IV, 50 J/cm^2 690 nm
  Percent Tumor Free on Day 7: 50%
[7]; 0.75 mg/kg liposomal IV, light 30 min post IV, 50 J/cm^2 690 nm
  Percent Tumor Free on Day 7: 0%
[7]; 1.0 mg/kg liposomal IV, light 15 min post IV, 50 J/cm^2 690 nm
  Percent Tumor Free on Day 7: 90%
[7]; 1.0 mg/kg liposomal IV, light 30 min post IV, 50 J/cm^2 690 nm
  Percent Tumor Free on Day 7: 0%
[7]; 1.5 mg/kg liposomal IV, light 180 min post IV, 150 J/cm^2 690 nm
  Percent Tumor Free on Day 7: 0%
MHC Class I
  MHC Class I expression, percent of cells treated with light only: 100.4%
L1210 cells [8]; 15 ng/ml, no serum, 9 J/cm^2 light (380–750 nm), vs light only
  percentage of cells that did not survive: ~100%
L1210 cells [8]; L1210 cells, 1 hr incubation, 9 J/cm^2 broad spectrum light, 10% serum
  LD50, 10% serum: 19.7 ng/mL
L1210 cells [8]; approximately 7 ng/ml, no serum, 9 J/cm^2 light (380–750 nm), vs light only
  percentage of killed cells: 80%
